experiment: RP, Waters ACQUITY UPLC BEH C18, 100 × 1 mm, 1.7 µm, 50 °C, 0.3 mL/min, estimated dead time 0.17 min; A: water + 10 mM ammonium bicarbonate; B: 10% water + 90% methanol + 10 mM ammonium bicarbonate; gradient (min/%B) 0/0 15/100 21/100 22/0 30/0; conditions: stereoisomer not certain

Row | Structure (SMILES) | LC retention time [min]
1 | Cn1sc(Cl)cc1=O [Methylchloroisothiazolinone] | 6.48
2 | NC1=NCCN1Cc1ccc(Cl)nc1 [Imidacloprid-guanidine] | 6.72
3 | C#CC(C)(C)NC(=O)c1cc(Cl)cc(Cl)c1 [Propyzamide] | 14.6
4 | CCNc1nc(Cl)nc(NC(C)(C)C)n1 [Terbuthylazine] | 14.4
5 | N#CC(CCc1ccc(Cl)cc1)(Cn1cncn1)c1ccccc1 (stereo unspecified) [Fenbuconazole] | 15.5
6 | CC(COc1ccc(Oc2ccccc2)cc1)Oc1ccccn1 (stereo unspecified) [Pyriproxyfen] | 17.4
7 | Nc1ccn(C2OC(CO)C(O)C2(F)F)c(=O)n1 (stereo unspecified) [Gemcitabine] | 3.38
8 | CNC(=O)ON=CC(C)(C)S(C)(=O)=O [Aldicarb Sulfone] | 9.41
9 | COc1cccc(C2(O)CCCCC2CN(C)C)c1 (stereo unspecified) [Tramadol] | 14
10 | CCNc1nc(NCC)nc(OC)n1 [Simeton] | 11.6
11 | Cc1cccc(C)c1O [2,6-Dimethylphenol] | 12
12 | COc1cc([N+](=O)[O-])ccc1O [4-Nitroguaiacol] | 4.61
13 | CCCCCC=CCC=CCCCCCCCC(=O)O [Linoleic acid] | 17.6
14 | CCNc1nc(NC(C)C)nc(OC)n1 [Atraton] | 12.4
15 | CNC(=O)Oc1cccc2c1OC(C)(C)O2 [Bendiocarb] | 11.9
16 | CC(=O)Nc1c(C)n(C)n(-c2ccccc2)c1=O [N-Acetyl-4-aminoantipyrine] | 7.94
17 | CCNc1nc(NC(C)(C)C)nc(OC)n1 [Terbumeton] | 14.3
18 | CNCC(c1ccc(O)cc1)C1(O)CCCCC1 (racemic) [rac N,O-Didesmethyl Venlafaxine] | 15.4
19 | Cn1c(=O)c2c(ncn2C)n(C)c1=O [Caffeine] | 7.78
20 | O=c1[nH]sc2ccccc12 [1,2-Benzisothiazolinone] | 6.97
21 | CC(C)N(C(=O)CCl)c1ccccc1 [Propachlor] | 13.3
22 | CC12CCC(=O)C=C1CCC1C2CCC2(C)C(O)CCC12 (stereo unspecified) [Testosterone] | 14.6

Row | Structure (SMILES) | LC retention time [min]
23 | CNC(=O)CSP(=O)(OC)OC [Omethoate] | 6.12
24 | CCOCCN(C(=O)CCl)C(=C(C)C)c1ccccc1 [Pethoxamid] | 15.3
25 | C#CC1(O)CCC2C3CCc4cc(O)ccc4C3CCC21C (stereo not drawn) [17-alpha-Ethinylestradiol] | 14.3
26 | CNC(=O)Oc1cc(C)c(SC)c(C)c1 [Methiocarb] | 14.3
27 | O=P(OCCCCl)(OCCCCl)OCCCCl [Tris(3-chloropropyl) phosphate] | 14.6
28 | c1ccc(OCCOc2ccccc2)cc1 [Ethylene glycol diphenylether] | 13.5
29 | CCC(C)(c1ccc(O)cc1)c1ccc(O)cc1 [Bisphenol B] | 14.3
30 | Nc1[nH]c(=O)ncc1F [5-Fluorocytosine] | 5.99
31 | COP(=O)(OC)OC(C)=CC(=O)N(C)C [Dicrotophos] | 8.69
32 | CC(N)C12CC3CC(CC(C3)C1)C2 (stereo unspecified) [Rimantadin] | 13.9
33 | CC12CCC3c4ccc(O)cc4CCC3C1CC(O)C2O (stereo unspecified) [Estriol] | 11.4
34 | Cc1cc(C(C)(C)C)c(O)c(C(C)(C)C)c1 [2,6-Di-tert.-butyl-4-methylphenol] | 18.1
35 | O=C1CC=Cc2ncc3ccccc3c21 [Phenanthridinon] | 13.2
36 | CC1(c2ccc(Oc3ccccc3)cc2)OC(=O)N(Nc2ccccc2)C1=O (stereo unspecified) [Famoxadone] | 16.1
37 | CC(C)(C)C(O)C(=Cc1ccc(Cl)cc1Cl)n1cncn1 (stereo unspecified) [Diniconazole] | 16.5
38 | CNC(=C[N+](=O)[O-])NCCSCc1ccc(CN(C)C)o1 [Ranitidine] | 10.2
39 | N#Cc1c[nH]cc1-c1cccc2c1OC(F)(F)O2 [Fludioxonil] | 14.4
40 | CC(=O)OCC12CCC(C)=CC1OC1C(O)C(OC(C)=O)C2(C)C12CO2 (stereo unspecified) [Diacetoxyscirpenol] | 12.1
41 | CCC(C)(NC(=O)c1cc(Cl)c(C)c(Cl)c1)C(=O)CCl (stereo unspecified) [Zoxamide] | 16
42 | N#CSCSc1nc2ccccc2s1 [TCMTB] | 14.1
43 | CC(C)(C)c1ccc(CSc2cnn(C(C)(C)C)c(=O)c2Cl)cc1 [Pyridaben] | 18.3
44 | CC(Oc1c(Cl)cc(Cl)cc1Cl)C(=O)O (stereo unspecified) [2,4,6-Fenoprop] | 2

Row | Structure (SMILES) | LC retention time [min]
45 | CN(C)CCCC1(c2ccc(F)cc2)OCc2cc(C#N)ccc21 (stereo unspecified) [Citalopram] | 14.8
46 | COC(=O)c1ccc(C(F)(F)F)nc1S(=O)(=O)NC(=O)Nc1nc(OC)cc(OC)n1 [Flupyrsulfuron-methyl] | 10.4
47 | CC(=O)Nc1ccc(O)cc1 [Acetaminophen] | 5.35
48 | FC(F)C(F)(F)OCC(Cn1cncn1)c1ccc(Cl)cc1Cl (stereo unspecified) [Tetraconazole] | 15.3
49 | CCCN(CCC)C(=O)SCc1ccccc1 [Prosulfocarb] | 16.9
50 | CSc1nnc(C(C)(C)C)c(=O)[nH]1 [Metribuzin-desamino] | 11.6
51 | CCNc1ccccc1 [N-Ethylaniline] | 12.2
52 | O=C(O)C=Cc1ccccc1O [2-Hydroxycinnamic acid] | 5
53 | CCON=C(OC(=O)c1ccccc1)c1c(OC)ccc(Cl)c1OC [Benzoximate] | 16.3
54 | CC(C)N(Cc1ccccc1)C(=O)C(C)(C)C [Tebutam] | 14.3
55 | CCCCCSCCOCCOCCOCCO [3,6,9-Trioxa-12-thia-heptadecanol] | 14.6
56 | CCC(CO)NCCNC(CC)CO (stereo unspecified) [Ethambutol] | 8.12
57 | CNC(=O)C=C(C)OP(=O)(OC)OC [Monocrotophos (Crisodin)] | 8.11
58 | CC(C)C(=O)OCC(C)(C)C(OC(=O)C(C)C)C(C)C (stereo unspecified) [2,2,4-Trimethyl-1,3-pentanediol diisobutyrate] | 17.4
59 | CC(C)(c1ccc(O)c(-c2ccccc2)c1)c1ccc(O)c(-c2ccccc2)c1 [Bisphenol PH] | 17.1
60 | C#CC1(O)CCC2C3CCc4cc(OC)ccc4C3CCC21C (stereo unspecified) [Mestranol] | 14.3
61 | CN(CCO)CCO [Methyl diethanolamine] | 2.65
62 | CCCCOCCOCCOCc1cc2c(cc1CCC)OCO2 [Piperonyl butoxide] | 15.3
63 | CNC(=O)Oc1ccccc1OC(C)C [Propoxur (baygon)] | 11.9
64 | On1ccccc1=S [Pyrithione] | 9.52
65 | CC(C)N(C(=O)C(=O)O)c1ccccc1 [Propachlor oxanilic acid (OA)] | 11.3
66 | O=C1NCCN1Cc1ccc(Cl)nc1 [Imidacloprid-urea] | 8.68

experiment: RP, Waters ACQUITY UPLC BEH C18, 100 × 1 mm, 1.7 µm, 50 °C, 0.3 mL/min, estimated dead time 0.17 min; A: water + 0.1% formic acid + 20 mM ammonium formate; B: methanol + 0.1% formic acid + 20 mM ammonium formate; gradient (min/%B) 0/0 15/100 21/100 22/0 30/0; conditions: stereoisomer not certain

Row | LC retention time [min] | Structure (SMILES)
67 | 7.28 | Cc1c(N)c(=O)n(-c2ccccc2)n1C [4-Aminoantipyrine]
68 | 14.9 | Cc1cc(C2CCCCC2)n(O)c(=O)c1 [Ciclopirox]
69 | 3.69 | Cc1ccc(N)cc1O [5-Amino-o-cresol]
70 | 9.71 | O=c1cc(-c2ccc(O)c(O)c2)oc2cc(OC3OC(CO)C(O)C(O)C3O)cc(O)c12 (stereo unspecified) [Luteolin 7-glucoside]
71 | 4.7 | NC(Cc1ccccc1)C(=O)O (stereo unspecified) [phenylalanine]
72 | 8.03 | COc1ccc(NS(=O)(=O)c2ccc(N)cc2)nn1 [Sulfamethoxypyridazin]
73 | 7.2 | O=C(O)CNC(=O)c1ccccc1 [Hippuric_acid]
74 | 3.6 | Nc1cc(Cl)c(S(N)(=O)=O)cc1S(N)(=O)=O [4-Amino-6-chloro-1,3-benzenedisulfonamide]
75 | 13.5 | c1ccc(Oc2ccccc2)cc1 [Diphenylether]
76 | 5.15 | COc1nc(C)nc(N)n1 [2-Amino-4-methoxy-6-methyl-1.3.5-triazine (MMT)]
77 | 8.28 | COCCOCCOCCOC [Triglyme]
78 | 11.4 | O=C(O)c1cc(Br)c(O)c(Br)c1 [3,5-Dibromo-4-hydroxybenzoic acid]
79 | 17.1 | CC(CCC(=O)O)C1CCC2C3C(O)CC4CC(O)CCC4(C)C3CCC12C (stereo unspecified) [Chenodeoxycholic acid]
80 | 15.4 | Cn1cc(C(=O)Nc2ccc(F)cc2-c2ccc(Cl)c(Cl)c2)c(C(F)F)n1 [Bixafen]
81 | 7.8 | O=C1NC(=O)c2ccccc21 [phthalimide]
82 | 9.9 | O=C(O)/C=C/c1ccccc1 [trans-Cinnamic acid]
83 | 2.6 | NC(Cc1cnc[nH]1)C(=O)N1CCCC1C(=O)O (stereo unspecified) [His-Pro]
84 | 4.31 | CC(C)Nc1nc(N)[nH]c(=O)n1 [Atrazin-desethyl-2-hydroxy]
85 | 4.3 | c1ccc2[nH]ncc2c1 [Indazole]

Row | Structure (SMILES) | LC retention time [min]
86 | Nc1c(Cl)cccc1Cl [2,6-Dichloroaniline] | 17.6
87 | O=c1cc(O)c2ccccc2o1 [4-Hydroxycoumarin] | 10.7
88 | CCc1cccc(C)c1NC(=O)CCl [Metolachlor-N-dealkylation] | 13.7
89 | COP(=O)(OC)OC1=C(Cl)C2C=CCC12 (stereo unspecified) [Heptenophos] | 13.3
90 | Cc1ccc(N=CN(C)C=Nc2ccc(C)cc2C)c(C)c1 [Amitraz] | 17.7
91 | CC(=O)OC1C(=O)C2(C)C(O)CC3OCC3(OC(C)=O)C2C(OC(=O)c2ccccc2)C2(O)CC(O)C(C)=C1C2(C)C (stereo unspecified) [Baccatin III] | 12.5
